# Columns and labels:
# [1] = tested on: Escherichia coli; assay: in vitro antibacterial evaluation, MIC by broth dilution; format: cell-based; settings: 18 hours at 35° C.
# Outline: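 MIC is the lowest antibiotic concentration (tested 64-0.06 μg/mL) preventing growth of a 5×10^5 CFU/mL inoculum. Determined by broth dilution in Mueller-Hinton II medium following NCCLS standard M7-A2.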
# [2] = tested on: Streptococcus sp.; assay: as above; format: cell-based; settings: broth dilution, 18 hours at 35° C.
# Outline: (§1)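 MIC, the lowest antibiotic concentration preventing growth, was read across 64-0.06 μg/mL with 5×10^5 CFU/mL inoculum. Method followed NCCLS M7-A2 broth dilution using Mueller-Hinton II; Gram-positive strains covered recent methicillin-, penicillin- and/or vancomycin-resistant clinical isolates.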
# [3] = tested on: Staphylococcus sp.; assay: as above; format: cell-based; settings: broth dilution, 18 hours at 35° C.
# Outline: as §1
# [4] = tested on: Enterococcus sp.; assay: as above; format: cell-based; settings: broth dilution, 18 hours at 35° C.
# Outline: as §1
# [5] = anatomic pathology (histopathology of heart and kidney) in mice; format: in vivo; settings: CD-1 mice, 20 mg/kg intravenously daily for 9 days, necropsy day 10, microscopic histopathology
# Protocol: Samples of tissues from necropsied mice were formalin-fixed, paraffin-embedded, sectioned, stained with hematoxylin and eosin, and examined microscopically. Histopathologic findings were recorded. These findings were subjectively graded on a scale corresponding to slight, mild, moderate, marked and severe as compared to untreated controls.
compound,measurement,setting,value
"CN=C1N(C)CC(C(O)C2NC(=O)C(Cc3ccc(OC4OC(CO)C(OC5OC(CO)C(O)C(O)C5O)C(O)C4O)cc3)NC(=O)C(C(C)c3ccccc3)NC(=O)CNC(=O)C(CO)NC(=O)C(C(O)C3CN(C)C(=NC)N3C3OC(CO)C(O)C(O)C3O)NC2=O)N1C (stereo not drawn) [Example 64, Cyclo[glycyl-β-methylphenylalanyl-O-(4-O-hexopyranosylhexopyranosyl)tyrosyl-3-(1,3-dimethyl-2-(methylimino)imidazolidin-4-yl)seryl-3-[3-hexopyranosyl-1-methyl-2-(methylimino)imidazolidin-4-yl]-serylseryl]]",MIC Escherichia coli (ATCC 25922),[1],>128 µg/mL
same,MIC Escherichia coli (GC 4559),[1],>128 µg/mL
same,MIC Escherichia coli (GC 4560),[1],>128 µg/mL
same,MIC Streptococcus agalactiae (GC 4564),[2],128 µg/mL
same,MIC Streptococcus pneumoniae (ATCC 6301),[2],>128 µg/mL
same,MIC Streptococcus pneumoniae (GC 1894),[2],128 µg/mL
same,MIC Streptococcus pneumoniae (GC 4565),[2],>128 µg/mL
same,MIC Streptococcus pyogenes (GC 4563),[2],>128 µg/mL
same,MIC Streptococcus pneumoniae (ATCC 6301),[2]; strain ATCC 6301,>128 µg/mL
same,MIC Streptococcus pneumoniae (GC 1894),[2]; strain GC 1894,128 µg/mL
same,MIC Streptococcus pyogenes (GC 4563),[2]; strain GC 4563,>128 µg/mL
same,MIC Streptococcus agalactiae (GC 4564),[2]; strain GC 4564,128 µg/mL
same,MIC Streptococcus pneumoniae (GC 4565),[2]; strain GC 4565,>128 µg/mL
same,MIC Staphylococcus aureus (ATCC 29213),[3]; strain ATCC 29213,>128 µg/mL
same,MIC Staphylococcus aureus (GC 1131),[3]; strain GC 1131,>128 µg/mL
same,MIC Staphylococcus aureus (GC 3051),[3]; strain GC 3051,>128 µg/mL
same,MIC Staphylococcus aureus (GC 3053),[3]; strain GC 3053,>128 µg/mL
same,MIC Staphylococcus aureus (GC 4541),[3]; strain GC 4541,>128 µg/mL
same,MIC Staphylococcus aureus (GC 4542),[3]; strain GC 4542,>128 µg/mL
same,MIC Staphylococcus aureus-SMITH (GC 4543),[3]; strain GC 4543,>128 µg/mL
same,MIC Staphylococcus aureus (GC 4544),[3]; strain GC 4544,>128 µg/mL
same,MIC Staphylococcus aureus (GC 4545),[3]; strain GC 4545,>128 µg/mL
same,MIC Staphylococcus haemolyticus (GC 4546),[3]; strain GC 4546,>128 µg/mL
same,MIC Coagulase Negative Staphylococcus (GC 4547),[3]; strain GC 4547,>128 µg/mL
same,MIC Coagulase Negative Staphylococcus (GC 4548),[3]; strain GC 4548,>128 µg/mL
same,MIC Coagulase Negative Staphylococcus (GC 4549),[3]; strain GC 4549,>128 µg/mL
same,MIC Coagulase Negative Staphylococcus (GC 4551),[3]; strain GC 4551,>128 µg/mL
same,MIC Coagulase Negative Staphylococcus (GC 6257),[3]; strain GC 6257,>128 µg/mL
same,MIC Enterococcus avium (GC 4558),[4]; Enterococcus avium (GC 4558),128 µg/mL
same,MIC Enterococcus faecalis (ATCC 29212),[4]; Enterococcus faecalis (ATCC 29212),>128 µg/mL
same,MIC Enterococcus faecalis (GC 4552),[4]; Enterococcus faecalis (GC 4552),>128 µg/mL
same,MIC Enterococcus faecalis (GC 4553),[4]; Enterococcus faecalis (GC 4553),>128 µg/mL
same,MIC Enterococcus faecalis (GC 4554),[4]; Enterococcus faecalis (GC 4554),>128 µg/mL
same,MIC Enterococcus faecalis (GC 6189),[4]; Enterococcus faecalis (GC 6189),>128 µg/mL
same,MIC Enterococcus faecium (GC 2243),[4]; Enterococcus faecium (GC 2243),>128 µg/mL
same,MIC Enterococcus faecium (GC 4556),[4]; Enterococcus faecium (GC 4556),>128 µg/mL
same,MIC Enterococcus faecium (GC 4557),[4]; Enterococcus faecium (GC 4557),>128 µg/mL
same,MIC Enterococcus avium (GC 4558),[4],128 µg/mL
same,MIC Enterococcus faecalis (ATCC 29212),[4],>128 µg/mL
same,MIC Enterococcus faecalis (GC 2242),[4],>128 µg/mL
same,MIC Enterococcus faecalis (GC 2691),[4],>128 µg/mL
same,MIC Enterococcus faecalis (GC 3059),[4],>128 µg/mL
same,MIC Enterococcus faecalis (GC 4552),[4],>128 µg/mL
same,MIC Enterococcus faecalis (GC 4553),[4],>128 µg/mL
same,MIC Enterococcus faecalis (GC 4554),[4],>128 µg/mL
same,MIC Enterococcus faecalis (GC 6189),[4],>128 µg/mL
same,MIC Enterococcus faecium (GC 2243),[4],>128 µg/mL
same,MIC Enterococcus faecium (GC 4556),[4],>128 µg/mL
same,MIC Enterococcus faecium (GC 4557),[4],>128 µg/mL
same,MIC Enterococcus faecalis (GC 2242),[4]; strain GC 2242,>128 µg/mL
same,MIC Enterococcus faecalis (GC 2691),[4]; strain GC 2691,>128 µg/mL
same,MIC Enterococcus faecalis (GC 3059),[4]; strain GC 3059,>128 µg/mL
same,"Anatomical Pathology (Day 10), Heart",[5],0
same,"Anatomical Pathology (Day 10), Kidney",[5],0

# Source: patent US6914045B2, “Glycopeptide antibiotics” (Wyeth Holdings Corporation, priority 2001, dated 2005)
